# Data from US11911386B2, “Methods of treating B-cell proliferative disorder” (BeiGene Switzerland GmbH, priority 2022, dated 2024).
# Read-outs that look alike come from different tables or passages of the source.
compound,measurement,setting,value
"C=CC(=O)N1CCC([C@@H]2CCNc3c(C(N)=O)c(-c4ccc(Oc5ccccc5)cc4)nn32)CC1 [zanubrutinib, (S)-7-(1-acryloylpiperidin-4-yl)-2-(4-phenoxyphenyl)-4,5,6,7-tetrahydropyrazolo[1,5-a]pyrimidine-3-carboxamide]",Grade ≥3 AE,160 mg bid group,28.6%
same,Neutropenia,160 mg bid group,19.0%
same,Patients with ≥1 AE,160 mg bid group,95.2%
same,SAE,160 mg bid group,9.5%
same,Treatment discontinuation due to AEs,160 mg bid group,4.8%
same,Grade ≥3 AE,320 mg qd group,32.0%
same,Neutropenia,320 mg qd group,8.0%
same,Patients with ≥1 AE,320 mg qd group,96%
same,SAE,320 mg qd group,16.0%
same,Treatment discontinuation due to AEs,320 mg qd group,12.0%
same,Arthralgia,67 patients,13.4%
same,Contusion,67 patients,22.4%
same,Death (COVID-19 pneumonia),67 patients,1.5%
same,Diarrhoea,67 patients,13.4%
same,Epistaxis,67 patients,7.5%
same,Fatigue,67 patients,20.9%
same,Grade ≥3 AEs,67 patients,29.9%
same,Hypertension,67 patients,11.9%
same,Myalgia,67 patients,14.9%
same,"Neutropenia or neutrophil count decreased, grade ≥3",67 patients,11.9%
same,Patients with ≥1 AE,67 patients,95.5%
same,Petechiae,67 patients,7.5%
same,Serious AEs,67 patients,11.9%
same,"Syncope, grade ≥3",67 patients,3.0%
same,Atrial fibrillation,"67 patients, all grade 2",4.5%
same,Patients who discontinued zanubrutinib,Cohort 1,15.8%
same,Patients who discontinued zanubrutinib due to AEs,Cohort 1,7.0%
same,Patients who discontinued zanubrutinib,Cohort 2,20.0%
same,Arthralgia,Grade 1,4 (6.0) n (%)
same,Back pain,Grade 1,2 (3.0) n (%)
same,Bronchitis,Grade 1,0 (0.0) n (%)
same,Cellulitis,Grade 1,0 (0.0) n (%)
same,Constipation,Grade 1,3 (4.5) n (%)
same,Contusion,Grade 1,12 (17.9) n (%)
same,Cough,Grade 1,4 (6.0) n (%)
same,Diarrhoea,Grade 1,6 (9.0) n (%)
same,Dizziness,Grade 1,3 (4.5) n (%)
same,Epistaxis,Grade 1,4 (6.0) n (%)
same,Fatigue,Grade 1,8 (11.9) n (%)
same,Headache,Grade 1,4 (6.0) n (%)
same,Hypertension,Grade 1,0 (0.0) n (%)
same,Insomnia,Grade 1,3 (4.5) n (%)
same,Muscle spasms,Grade 1,4 (6.0) n (%)
same,Myalgia,Grade 1,8 (11.9) n (%)
same,Nausea,Grade 1,6 (9.0) n (%)
same,Neutropenia,Grade 1,0 (0.0) n (%)
same,Neutrophil count decrease,Grade 1,0 (0.0) n (%)
same,Pain in extremity,Grade 1,3 (4.5) n (%)
same,Petechiae,Grade 1,5 (7.5) n (%)
same,Pruritus,Grade 1,3 (4.5) n (%)
same,Rash,Grade 1,5 (7.5) n (%)
same,Seborrheic keratosis,Grade 1,3 (4.5) n (%)
same,Skin laceration,Grade 1,2 (3.0) n (%)
same,Upper respiratory tract infection,Grade 1,3 (4.5) n (%)
same,Urinary tract infection,Grade 1,1 (1.5) n (%)
same,Arthralgia,Grade 2,5 (7.5) n (%)
same,Back pain,Grade 2,2 (3.0) n (%)
same,Bronchitis,Grade 2,3 (4.5) n (%)
same,Cellulitis,Grade 2,3 (4.5) n (%)
same,Constipation,Grade 2,1 (1.5) n (%)
same,Contusion,Grade 2,3 (4.5) n (%)
same,Cough,Grade 2,1 (1.5) n (%)
same,Diarrhoea,Grade 2,2 (3.0) n (%)
same,Dizziness,Grade 2,4 (6.0) n (%)
same,Epistaxis,Grade 2,1 (1.5) n (%)
same,Fatigue,Grade 2,6 (9.0) n (%)
same,Headache,Grade 2,0 (0.0) n (%)
same,Hypertension,Grade 2,7 (10.4) n (%)
same,Insomnia,Grade 2,2 (3.0) n (%)
same,Muscle spasms,Grade 2,1 (1.5) n (%)
same,Myalgia,Grade 2,2 (3.0) n (%)
same,Nausea,Grade 2,1 (1.5) n (%)
same,Neutropenia,Grade 2,0 (0.0) n (%)
same,Neutrophil count decrease,Grade 2,2 (3.0) n (%)
same,Pain in extremity,Grade 2,3 (4.5) n (%)
same,Petechiae,Grade 2,0 (0.0) n (%)
same,Pruritus,Grade 2,1 (1.5) n (%)
same,Rash,Grade 2,0 (0.0) n (%)
same,Seborrheic keratosis,Grade 2,1 (1.5) n (%)
same,Skin laceration,Grade 2,2 (3.0) n (%)
same,Upper respiratory tract infection,Grade 2,1 (1.5) n (%)
same,Urinary tract infection,Grade 2,4 (6.0) n (%)
same,Arthralgia,Grade 3,0 (0.0) n (%)
same,Back pain,Grade 3,0 (0.0) n (%)
same,Bronchitis,Grade 3,1 (1.5) n (%)
same,Cellulitis,Grade 3,1 (1.5) n (%)
same,Constipation,Grade 3,0 (0.0) n (%)
same,Contusion,Grade 3,0 (0.0) n (%)
same,Cough,Grade 3,0 (0.0) n (%)
same,Diarrhoea,Grade 3,1 (1.5) n (%)
same,Dizziness,Grade 3,0 (0.0) n (%)
same,Epistaxis,Grade 3,0 (0.0) n (%)
same,Fatigue,Grade 3,0 (0.0) n (%)
same,Headache,Grade 3,0 (0.0) n (%)
same,Hypertension,Grade 3,1 (1.5) n (%)
same,Insomnia,Grade 3,0 (0.0) n (%)
same,Muscle spasms,Grade 3,0 (0.0) n (%)
same,Myalgia,Grade 3,0 (0.0) n (%)
same,Nausea,Grade 3,0 (0.0) n (%)
same,Neutropenia,Grade 3,5 (7.5) n (%)
same,Neutrophil count decrease,Grade 3,2 (3.0) n (%)
same,Pain in extremity,Grade 3,0 (0.0) n (%)
same,Petechiae,Grade 3,0 (0.0) n (%)
same,Pruritus,Grade 3,0 (0.0) n (%)
same,Rash,Grade 3,0 (0.0) n (%)
same,Seborrheic keratosis,Grade 3,0 (0.0) n (%)
same,Skin laceration,Grade 3,0 (0.0) n (%)
same,Upper respiratory tract infection,Grade 3,0 (0.0) n (%)
same,Urinary tract infection,Grade 3,0 (0.0) n (%)
same,Arthralgia,Grade 4,0 (0.0) n (%)
same,Back pain,Grade 4,0 (0.0) n (%)
same,Bronchitis,Grade 4,0 (0.0) n (%)
same,Cellulitis,Grade 4,0 (0.0) n (%)
same,Constipation,Grade 4,0 (0.0) n (%)
same,Contusion,Grade 4,0 (0.0) n (%)
same,Cough,Grade 4,0 (0.0) n (%)
same,Diarrhoea,Grade 4,0 (0.0) n (%)
same,Dizziness,Grade 4,0 (0.0) n (%)
same,Epistaxis,Grade 4,0 (0.0) n (%)
same,Fatigue,Grade 4,0 (0.0) n (%)
same,Headache,Grade 4,0 (0.0) n (%)
same,Hypertension,Grade 4,0 (0.0) n (%)
same,Insomnia,Grade 4,0 (0.0) n (%)
same,Muscle spasms,Grade 4,0 (0.0) n (%)
same,Myalgia,Grade 4,0 (0.0) n (%)
same,Nausea,Grade 4,0 (0.0) n (%)
same,Neutropenia,Grade 4,0 (0.0) n (%)
same,Neutrophil count decrease,Grade 4,1 (1.5) n (%)
same,Pain in extremity,Grade 4,0 (0.0) n (%)
same,Petechiae,Grade 4,0 (0.0) n (%)
same,Pruritus,Grade 4,0 (0.0) n (%)
same,Rash,Grade 4,0 (0.0) n (%)
same,Seborrheic keratosis,Grade 4,0 (0.0) n (%)
same,Skin laceration,Grade 4,0 (0.0) n (%)
same,Upper respiratory tract infection,Grade 4,0 (0.0) n (%)
same,Urinary tract infection,Grade 4,0 (0.0) n (%)
same,Serious atrial fibrillation,"Safety Analysis Set, 72 patients",2.8%
same,Arthralgia,Total,9 (13.4) n (%)
same,Back pain,Total,4 (6.0) n (%)
same,Bronchitis,Total,4 (6.0) n (%)
same,Cellulitis,Total,4 (6.0) n (%)
same,Constipation,Total,4 (6.0) n (%)
same,Contusion,Total,15 (22.4) n (%)
same,Cough,Total,5 (7.5) n (%)
same,Diarrhoea,Total,9 (13.4) n (%)
same,Dizziness,Total,7 (10.4) n (%)
same,Epistaxis,Total,5 (7.5) n (%)
same,Fatigue,Total,14 (20.9) n (%)
same,Headache,Total,4 (6.0) n (%)
same,Hypertension,Total,8 (11.9) n (%)
same,Insomnia,Total,5 (7.5) n (%)
same,Muscle spasms,Total,5 (7.5) n (%)
same,Myalgia,Total,10 (14.9) n (%)
same,Nausea,Total,7 (10.4) n (%)
same,Neutropenia,Total,5 (7.5) n (%)
same,Neutrophil count decrease,Total,5 (7.5) n (%)
same,Pain in extremity,Total,6 (9.0) n (%)
same,Petechiae,Total,5 (7.5) n (%)
same,Pruritus,Total,4 (6.0) n (%)
same,Rash,Total,5 (7.5) n (%)
same,Seborrheic keratosis,Total,4 (6.0) n (%)
same,Skin laceration,Total,4 (6.0) n (%)
same,Upper respiratory tract infection,Total,4 (6.0) n (%)
same,Urinary tract infection,Total,5 (7.5) n (%)
same,Bleeding events,in vivo,25 patients
same,Median time to onset of first hypertensive event,in vivo,105 days
same,Patients requiring dose reductions,in vivo,9.0%
same,Rate of zanubrutinib discontinuation due to AEs,in vivo,< 10%
